Laboratory results taken from US7351531B2, “Molecules capable of binding to telomere and the like and method with the use of the same” (Japan Science and Technology Corporation, priority 2001, dated 2008).

Key:
[1] = test system: G-G mismatch base pair in 52-mer duplex DNA; assay: DNase I footprinting titration of 52-mer duplex DNA, G-G mismatch site; assay type: binding
Description: (§1) A 5′-^32P-labeled 52-mer duplex DNA having a GC base pair, GA mismatch base pair and a GG mismatch base pair in the duplex DNA was prepared. The partial listing of the corresponding moieties is shown below.
(§2) The inventors have analyzed the duplex DNA through DNase I (DNA hydrolase) footprinting titration for the sites where the DNA cleavage by DNase I was inhibited in the presence of a varying concentration of the compound of formula (III).
(§3) The relationship between the cleavage band intensity and the naphthyridine concentration in FIG. 1 is plotted to give a graph as in FIG. 2. The vertical axis of FIG. 2 indicates the cleavage inhibition ratio derived from the cleavage band intensity. […] The horizontal axis of FIG. 2 indicates the concentration (M) of the compound of formula (III) added to the test system. In FIG. 2, the closed circles (●) indicate the G-G mismatch site, and the closed triangles (▴) indicate the G-A mismatch site.
(§4) ^32P-5′-end-labeled 52-mer DNA was hybridized into a duplex DNA with G-G and G-A mismatches (see the right side of FIG. 1).
(§5) A varying concentration of the compound obtained in Example 1 was added to the duplex DNA, and the DNA was analyzed through DNase I footprinting titration.
(§6) Concretely, the duplex DNA (<4 nM strand concentration) was incubated at 4° C. for 12 hours along with a varying concentration of the compound obtained in Example 1, in a tris-HCl buffer (10 mM, pH 7.6) that contains NaCl (100 mM) and MgCl2(5 mM). To this was added 0.2 U DNaseI (DNA hydrolase), and this was further incubated at 25° C. for 8 minutes. Next, this was precipitated in ethanol to recover the DNA, which was then subjected to electrophoresis with a gel that contains 12% polyacrylamide and 7 M urea.

[2] = test system: G-A mismatch base pair in 52-mer duplex DNA; assay: DNase I footprinting titration of 52-mer duplex DNA, G-A mismatch site; assay type: binding; design: effect of inhibiting G-A mismatch site cleavage: dose or concentration left out as unconfirmed
Description: as §1, §2, §3, §4, §5, §6

[3] = test system: normal G-C base pair in 52-mer duplex DNA; assay: DNase I footprinting titration of 52-mer duplex DNA, normal G-C site; assay type: binding; details: concentration 0 to 500 μM, FIG. 1
Description: as §1, §2
In FIG. 1, the concentration of the compound of formula (III) varies from 0 to 500 μM from the left to the right. The sites cleaved with the DNase I (DNA hydrolase) are seen black, while those protected from cleavage with the DNase I are seen white.
as §4, §5
as §6, with “Next, this was precipitated in ethanol to recover the DNA, which was then subjected to electrophoresis with a gel that contains 12% polyacrylamide and 7 M urea.” left out

[4] = test system: single-stranded human telomere sequence DNA (22-mer 5'-AGGGTTAGGGTTAGGGTTAGGG3'); assay: Binding titration with single-stranded human telomere sequence DNA (22-mer, FIG. 4)
Description: Samples of single-stranded human telomere sequence DNA were tested for the inhibition of DNA cleavage by DNase I (DNA hydrolase) through footprinting titration in the presence of a varying concentration of the compound of formula (III) (this is hereinafter referred to as naphthyridine dimer or simply as ND).
The test result in FIG. 4 is similar to that in FIG. 2. The vertical axis of FIG. 4 indicates the cleavage inhibition ratio derived from the cleavage band intensity. […] The horizontal axis of FIG. 4 indicates the ratio of the G-G mismatch concentration to the concentration (M) of the compound of formula (III) added to the test system, [GG]/[ND] in which ND means the compound of formula (III).
A solution of a 22-mer oligonucleotide having the following base sequence: • 5′-[…]3′ (SEQ ID NO: 9) in a sodium cacodylate buffer (10 mM, pH 7.0, NaCl 100mM) was heated at 70° C. for 5 minutes, and then gradually cooled so that the oligomer could form a quadraplex structure (see Structure, 263, 1 (1993)). A varying concentration of a naphthyridine dimer was dropwise added to the resulting solution, and the naphthyridine dimer-binding amount was obtained through 360 nm absorptiometry.

[5] = 52-mer duplex DNA, DNase I footprinting titration

association constant to the G-G mismatch (Ka(GGmis)) [1, 5]: 1.13e+07 M⁻¹
concentration at which G-G mismatch site cleavage by DNase I is almost completely inhibited ([1]; FIG. 2): about 10^−5 M
ratio of the association constants (Ka(GGmis))/(Ka(GAmis)) ([1]; G-G versus G-A mismatch, 52-mer duplex DNA): 696
effect of inhibiting G-A mismatch site cleavage [2]: about 90%
association constant to the G-A mismatch (Ka(GAmis)) [2, 5]: 16300 M⁻¹
concentration at which compound becomes effective for inhibiting cleavage of the G-A mismatch site ([2]; FIG. 2): about 10^−6 M
protection of normal G-C base pair from DNase I cleavage [3]: cleaved by DNase I
association constant to the G-G mismatch (Ka(GGmis)) in human telomere sequence ([4]; 22-mer, sodium cacodylate buffer pH 7.0, NaCl 100 mM, Scatchard plot): 420000 M⁻¹
concentration ratio [GG]/[ND] at which G-G mismatch site cleavage is almost completely inhibited ([4]; FIG. 4): about 3
concentration ratio [GG]/[ND] at which compound is already effective for inhibiting cleavage of the G-G mismatch site ([4]; FIG. 4, relatively low concentration): 0.5
Structure (SMILES): Cc1ccc2ccc(NC(=O)CCNCCC(=O)Nc3ccc4ccc(C)nc4n3)nc2n1 [compound of formula (III), dinaphthyridinamide]
